Patent US6642392B1 (priority 1997, dated 2003)

What was measured:
Assay type in all cases: in vivo
Puccinia recondita = test: Test B: wheat leaf rust, preventive spray on wheat seedlings; conditions: wheat leaf rust; 100 = 100% disease control, 0 = no control; unmarked entries (standard test concentration)
Method in brief: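 Preventive test: P. recondita spores were applied one day after a run-off spray of compound suspension on wheat seedlings. Plants had 24 h at 20 °C in saturated air plus 6 days in a 20 °C growth chamber. Scoring is % disease control (100 = full) relative to controls.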

[1] = tested on: Eiysiphe graminis f. sp. tritici; test: Test A: wheat powdery mildew, preventive spray on wheat seedlings; conditions: wheat powdery mildew; 100 = 100% disease control, 0 = no control relative to controls; unmarked entries (standard test concentration)
Method in brief: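 Preventive test: seedlings inoculated with powdery mildew spores one day after run-off spraying of a suspension. Ratings after 7 days in a 20° C growth chamber express percent disease control versus controls.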

Botrytis cinerea = test: Test E: gray mold, preventive spray on cucumber seedlings; conditions: gray mold on cucumber; 100 = 100% disease control, 0 = no control; unmarked entries (standard test concentration)
Method in brief: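 Preventive spray on cucumber seedlings used a suspension (3% acetone, 250 ppm Trem 014), applied to run-off one day before inoculation with Botrytis cinerea spores. Plants were held 48 h at 20° C in saturated air, then 5 days at 20° C. Percent disease control was scored relative to untreated plants.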

Pyricularia oryzae = conditions: rice blast; 100 = 100% disease control, 0 = no control; unmarked entries (standard test concentration)
Phytophthora infestans = conditions: tomato late blight; 100 = 100% disease control, 0 = no control; unmarked entries (standard test concentration)

| Structure (SMILES) | Test B disease control rating (Puccinia recondita) [%] | Test A disease control rating [1] [%] | Test E disease control rating (Botrytis cinerea) [%] | Test C disease control rating (Pyricularia oryzae) [%] | Test D disease control rating (Phytophthora infestans) [%] |
| --- | --- | --- | --- | --- | --- |
| C[C@H](COc1cc(F)cc(F)c1Cl)NC(=O)C(C#N)C(C)(C)C (single isomer, unassigned) [169a] | 27 | 84 | 0 | 91 | 24 |
| C[C@H](COc1cc(F)cc(F)c1Cl)NC(=O)C(C#N)C(C)(C)C (single isomer, unassigned) [169b] | 0 | 0 | 0 | 97 | 0 |
| C[C@H](COc1cc(Cl)cc(Cl)c1Cl)NC(=O)C(C#N)C(C)(C)C (single isomer, unassigned) [170a] | 0 | 35 | 58 | 53 | 0 |
| C[C@H](COc1cc(Cl)cc(Cl)c1Cl)NC(=O)C(C#N)C(C)(C)C (single isomer, unassigned) [170b] | 68 | 61 | 95 | 53 | 23 |
| C[C@H](COc1c(Cl)ccc(Cl)c1Cl)NC(=O)C(C#N)C(C)(C)C (single isomer, unassigned) [171a] | 0 | 0 | 0 | 86 | 0 |
| C[C@H](COc1c(Cl)ccc(Cl)c1Cl)NC(=O)C(C#N)C(C)(C)C (single isomer, unassigned) [171b] | 0 | 91 | 58 | 53 | 0 |
| C[C@H](COc1cc(F)c(Cl)cc1F)NC(=O)C(C#N)C(C)(C)C (single isomer, unassigned) [173a] | 28 | 63 | 0 | 52 | 33 |
| C[C@H](COc1cc(F)c(Cl)cc1F)NC(=O)C(C#N)C(C)(C)C (single isomer, unassigned) [173b] | 0 | 0 | 0 | 90 | 91 |
| C[C@H](COc1cc(Cl)c(Cl)cc1Cl)NC(=O)C(C#N)C(C)(C)C (single isomer, unassigned) [174a] | 0 | 0 | 0 | 31 | 54 |
| C[C@H](COc1cc(Cl)c(Cl)cc1Cl)NC(=O)C(C#N)C(C)(C)C (single isomer, unassigned) [174b] | 28 | 0 | 0 | 52 | 91 |
| C[C@H](COc1ccc(Cl)c(Cl)c1)NC(=O)C(C#N)C(C)(C)C (single isomer, unassigned) [181a] | 0 | 0 | 69 | 86 | 56 |
| C[C@H](COc1ccc(Cl)c(Cl)c1)NC(=O)C(C#N)C(C)(C)C (single isomer, unassigned) [181b] | 0 | 37 | 90 | 74 | 0 |
| C[C@H](COc1ccc(Cl)c(F)c1)NC(=O)C(C#N)C(C)(C)C (single isomer, unassigned) [182a] | 0 | 0 | 0 | 0 | 0 |
| C[C@H](COc1ccc(Cl)c(F)c1)NC(=O)C(C#N)C(C)(C)C (single isomer, unassigned) [182b] | 68 | 0 | 0 | 94 | 0 |
| C[C@H](COc1ccc(F)c(Cl)c1)NC(=O)C(C#N)C(C)(C)C (single isomer, unassigned) [183a] | 28 | 0 | 0 | 86 | 35 |
| C[C@H](COc1ccc(F)c(Cl)c1)NC(=O)C(C#N)C(C)(C)C (single isomer, unassigned) [183b] | 28 | 86 | 69 | 94 | 35 |
| C[C@H](COc1cc(F)cc(F)c1)NC(=O)C(C#N)C(C)(C)C (single isomer, unassigned) [184a] | 0 | 62 | 6 | 74 | 0 |
| C[C@H](COc1cc(F)cc(F)c1)NC(=O)C(C#N)C(C)(C)C (single isomer, unassigned) [184b] | 0 | 62 | 45 | 74 | 9 |
| C[C@H](COc1ccc(F)c(F)c1Br)NC(=O)C(C#N)C(C)(C)C (single isomer, unassigned) [187a] | 28 | 0 | 6 | 94 | 9 |
| C[C@H](COc1ccc(F)c(F)c1Br)NC(=O)C(C#N)C(C)(C)C (single isomer, unassigned) [187b] | 68 | 77 | 6 | 94 | 91 |
| C[C@H](COc1cc(F)c(F)cc1F)NC(=O)C(C#N)C(C)(C)C (single isomer, unassigned) [188a] | 0 | 0 | 0 | 97 | 56 |
| C[C@H](COc1cc(F)c(F)cc1F)NC(=O)C(C#N)C(C)(C)C (single isomer, unassigned) [188b] | 0 | 0 | 45 | 100 | 35 |
| C[C@H](COc1c(F)cc(F)cc1F)NC(=O)C(C#N)C(C)(C)C (single isomer, unassigned) [189a] | 0 | 0 | 6 | 97 | 0 |
| C[C@H](COc1c(F)cc(F)cc1F)NC(=O)C(C#N)C(C)(C)C (single isomer, unassigned) [189b] | 0 | 0 | 0 | 100 | 35 |
| C[C@H](COc1ccc(F)c(F)c1F)NC(=O)C(C#N)C(C)(C)C (single isomer, unassigned) [190a] | 0 | 0 | 6 | 91 | 0 |
| C[C@H](COc1ccc(F)c(F)c1F)NC(=O)C(C#N)C(C)(C)C (single isomer, unassigned) [190b] | 0 | 0 | 0 | 94 | 0 |
| C[C@H](COc1cc(F)ccc1Cl)NC(=O)C(C#N)C(C)(C)C (single isomer, unassigned) [191a] | 0 | 0 | 85 | 100 | 25 |
| C[C@H](COc1cc(F)ccc1Cl)NC(=O)C(C#N)C(C)(C)C (single isomer, unassigned) [191b] | 0 | 0 | 55 | 100 | 47 |
| C=CC(C)(C)C(C#N)C(=O)N[C@H](C)COc1cc(F)ccc1Cl (single isomer, unassigned) [192a] | 0 | 0 | 85 | 100 | 0 |
| C=CC(C)(C)C(C#N)C(=O)N[C@H](C)COc1cc(F)ccc1Cl (single isomer, unassigned) [192b] | 0 | 0 | 0 | 100 | 0 |
